Assays:
[1] = Fit of relaxivity vs pH profiles: proton exchange kinetic and relaxation parameters; format: physicochemical; settings: 0.15 M NaCl, 298 K
Experimental: At pH >3, the r1 values of GdL2 decrease with the increase of pH from 6.6 mM^–1 s^–1 to reach a plateau of 5.1 mM^–1 s^–1 around pH = 7.5. A further increase of the pH results in the slight increase of r1 reaching a maximum around pH = 9.5. Finally, at pH >9.5, another small decrease in r1 is observed. On the other hand, in the case of GdL1, the r1 values are independent from the pH in the range 4.0–7.5, whereas at pH >8.0, r1 increases up to 5.2 mM^–1 s^–1. The r1 values of GdL1 were measured in the pH range 4–10 in order to avoid the hydrolysis of the methyl ester. […] Then, the overall relaxivity, r1, is given by eq 1: [drawing 1] 1 where r1^is, r1^os, and r1^pr are the relaxivity components due to the inner and outersphere water molecules and the −OH group, respectively. r1^pr can be expressed as follows:[26]−[28] [drawing 2] 2
According to the proposed reaction mechanism, the rate of acid-catalyzed proton exchange of GdL2 and Gd(HL2) is vH = kH[H3O^+][GdL2] and vH = kH[H3O^+][Gd(HL2)], where the kH rate constant characterizes the acid-catalyzed proton exchange processes of GdL2 and Gd(HL2) species. Because of the fast internal rearrangement, the alcoholic −OH and −COOH protons cannot be distinguished, and their lifetime is τp = (kH[H^+])^−1 in both cases. The rate of the base-catalyzed exchange between the alcoholic −OH proton of GdL1 and GdL2 and the bulk is vOH = kOH[OH^–][GdL] and τp = (kOH [OH^–])^−1, where the rate constant kOH characterizes the base-catalyzed proton exchange process for GdL1 and GdL2. Both acid- and base-catalyzed exchange mechanisms require the diffusion-controlled formation of an H-bonded complex and subsequently the rapid separation of the corresponding conjugate acid and base.[29] By considering the proposed reaction mechanism, eq 2 can be rewritten as follows: [drawing 3] 3 where αH = KGdLH–1[H^+] + KGdHLKGdLH–1[H^+]^2, ^GdHLr1^is+os, ^GdLr1^is+os, and ^GdLH–1r1^is+os are the sum of r1^is and r1^os for GdHL, GdL, and GdLH–1 species, respectively. Whereas for GdL2 the experimental data (Figure 1) were fitted to eq 3 (Table 2), in the case of GdL1, eq 3 was modified to account for the formation of GdL1 and Gd(L1)H–1 species and the base-catalyzed exchange of the −OH proton. Thus, the first and fourth terms and kH[H^+] of the denominator in the last term in the brackets were not considered.
Proton relaxation measurements (1/T1) and the resulting 1/T1 NMRD profiles were measured on a fast-field cycling (FFC) Stelar SmarTracer relaxometer over a continuum of magnetic field strengths from 0.000 24 to 0.25 T (corresponding to 0.01–10 MHz proton Larmor frequencies). The relaxometer operates under computer control with an absolute uncertainty in 1/T1 of ±1%. […] Furthermore, the real temperature inside the probe head was additionally monitored by a Fluke 52 k/j digital thermometer (Fluke, Zürich, Switzerland). The gadolinium concentration was determined by measuring the bulk magnetic susceptibility shifts of the t-BuOH ^1H NMR signal. Additional data in the 20–120 MHz frequency range were obtained with a high field relaxometer (Stelar) equipped with the HTS-110 3T metrology cryogen-free superconducting magnet. […] The pH-dependent relaxivity measurements of GdL1 and GdL2 complexes were carried out by direct titration of the samples (GdL2, 3.0 < pH < 12.5; GdL1, 4 < pH < 10). The pH was adjusted by the stepwise addition of concentrated NaOH or HCl solution. […]

[2] = Acid-assisted dissociation kinetics of Gd^III complexes followed by ^1H NMR relaxometry
From the text: In order to investigate the kinetic inertness of the Gd^III complex, the dissociation reactions of GdL2 were followed by ^1H NMR relaxometry (21 MHz and 298 K) in the presence of large acid excess ([HCl] = 0.01–1.0 M) to guarantee the pseudo-first-order kinetic conditions.
The kinetic inertness of the GdL2 was characterized by the rates of the dissociation reactions taking place in 0.01–1.0 M HCl solution. The dissociation reactions of the GdL2 were followed by measuring the longitudinal relaxation time of H2O protons (T1) with a Stelar relaxometer connected to a Bruker WP80 NMR electromagnet adapted to variable-field measurements (15–80 MHz proton Larmor frequency). The temperature was controlled with a Stelar VTC-91 airflow heater equipped with a calibrated copper–constantan thermocouple (uncertainty of ±0.1 °C). Measures were carried out at 21 MHz and 25 °C. The longitudinal relaxation time (T1) was measured with the “inversion recovery” method (180° – τ – 90°) by using 16 different τ values with a typical 90° pulse width of 6.5 μs, 4 scans. The measurements were performed with a 1 mM solution of the GdL2 complex. The relaxivity values were given as r1 = 1/T1p + 1/T1w where T1p and T1w are the relaxation times of the bulk water protons in the presence and absence of GdL2. The pseudo-first-order rate constants (kd) were calculated by fitting the relaxation rate (r1 = 1/T1p) data to eq 4. […] 4 where rr and rv are the relaxivity values of the reactants and the product (Gd^3+: r1p = 12.85 (2) mM^–1 s^–1, 21 MHz, 25 °C) and rt is the measured relaxivity at reaction time t. The temperature was maintained at 25 °C, and the ionic strength of the solutions was kept constant at [H^+] ≤ 0.15 M, [HCl] + [NaCl] = 0.15 M. The calculation of the kinetic parameters was performed by the fitting of the absorbance–time and relaxation rate–time data pairs with the Micromath Scientist computer program (version 2.0, Salt Lake City, UT).
Kinetic inertness of GdL2
In order to investigate the kinetic inertness of GdL2, the dissociation reactions of GdL2 were followed
by 1H-NMR relaxometry in the presence of large acid excess ([HCl]= 0.01 – 1.0 M) to guarantee the
pseudo-first-order kinetic conditions. The R1obs values as a function of time for the dissociation
In the presence of HCl excess, the dissociation of GdL2 can be treated as a pseudo-first-order process
and the rate of the reaction can be expressed by Eq. (S7)
where kd is a pseudo-first-order rate constant, [GdL]t and [GdL]tot are the concentrations of the GdL
species at time t and the total concentration of the complex, respectively. The rates of the dissociation
reactions were determined at different concentrations of HCl ([HCl]=0.01 – 1.0 M).
The proton assisted dissociation
of GdL2 might occur by the equilibrium formation of a protonated *Gd(H2L2) intermediate (Eq.
(S8)), which dissociates spontaneously (Eq. (S9)).
Gd(HL2) + H Gd(H2L2) (S8)

O=C([O-])CN1CCN(CC(=O)[O-])CCN(CC(O)C(=O)O)CCN(CC(=O)[O-])CC1.[Gd+3] (centres unmarked) [GdL2]
^GdHLr1^is+os ([1]; 20 MHz): 5.11 ± 0.08 mM^–1 s^–1 | ^GdLH–1r1^is+os ([1]; 20 MHz): 4.93 ± 0.03 mM^–1 s^–1 | ^GdLr1^is+os ([1]; 20 MHz): 4.85 ± 0.04 mM^–1 s^–1 | kH × 10^–11 ([1]; acid-catalyzed proton exchange): 1.5 ± 0.2 M^–1 s^–1 | kOH × 10^–10 ([1]; base-catalyzed proton exchange): 0.17 ± 0.04 M^–1 s^–1 | kd at pH = 7.4 ([2]; calculated from acid-assisted dissociation only, pH = 7.4, 298 K, comparators from literature constants): 9.01 × 10^–12 s^–1 | k1 (acid-catalyzed dissociation rate constant) ([2]; k1 = kGdH2L × K^HGd(HL), [HCl] = 0.01–1.0 M, 298 K): (2.3 ± 0.1) × 10^–4 M^–1 s^–1 | K^HGdL ([2]; protonation constant of GdHL from kinetic data, 298 K): 0.5 ± 0.1 (GdHL) M^–1
